Measurements as given in patent US20090076131A1, “Anti-Cancer and Anti-Inflammatory Effects of Annurca Apple Extracts and Compositions Purified Therefrom” (BAYLOR RESEARCH INSTITUTE, priority 2007, published 2009).

Columns and labels:
p14^ARF = experiment: mRNA expression by conventional RT-PCR; format: cell-based, Human
Experimental: (§1) Conventional RT-PCR was also performed to assess the mRNA expression of p14^ARF 27, p16^INK4a 28, hMLH1^29, DNMT-1^30 and DNMT-3b^31. cDNA was generated with random hexamers using 2 μg of RNA. The PCR was performed as previously reported^32. β-actin was used as an endogenous control. The statistical significance of differences between the experimental points or between groups was analyzed using Student's t-test; and differences were considered significant when P<0.05.

p16^INK4a = experiment: mRNA expression by conventional RT-PCR; format: cell-based, Human
Experimental: as §1

## Nc1ncn([C@H]2C[C@H](O)[C@@H](CO)O2)c(=O)n1 [5-aza-2dC, 5-aza-2′deoxycytidine]
p14^ARF; RKO
  p14^ARF RNA transcripts: re-expression
p14^ARF; SW48 cells
  p14^ARF RNA transcripts: appearance of RNA transcripts
p16^INK4a; RKO
  p16^INK4a RNA transcripts: re-expression
p16^INK4a; SW48 cells
  p16^INK4a RNA transcripts: appearance of RNA transcripts
